In patent US9353075B2, “Disubstituted beta-lactones as inhibitors of N-acylethanolamine acid amidase (NAAA)” (The Regents of the University of California, priority 2011, dated 2016):

Key:
[1] = Chemical stability in PBS buffer pH 7.4; assay type: physicochemical; conditions: phosphate-buffered saline, 0.01M PBS pH 7.4, 37° C., read-out: Stability in PBS buffer, pH 7.4 t1/2
Procedure: Chemical stability of select compounds was evaluated under physiological pH conditions (0.01M Phosphate-Buffered Saline, pH 7.4) for up to 24 h. Stock solutions of each compound (10 mM) were prepared freshly in DMSO. Each compound was incubated at a final concentration of 10 μM (1% DMSO) in pre-heated buffer (0.01M Phosphate-Buffered Saline (PBS), pH 7.4 at 37° C.). The sample solutions were divided into aliquots in glass vials (pre-heated at 37° C.) for each time point. The samples were maintained at 37° C. in the UPLC/MS Autosampler during the study (no shaking). A reference solution of each compound (final concentration: 10 μM at 1% DMSO) in pre-heated CH3CN (37° C.) was prepared from the stock solutions (10 mM in DMSO). The reference solutions were maintained at 37° C. in the UPLC/MS Autosampler during the study (no shaking). An internal standard (100 nM) was added to the sample and reference solutions. For each time point, the samples were analyzed directly by LC/MS without any further sample preparation. The samples were analyzed (triplicate injection) by monitoring the MS trace by Multiple Reaction Monitoring (MRM). The compound concentration (expressed as %) was calculated by dividing the peak area at each time point by the peak area at t=0 min. The reference solution was analyzed at the beginning (t=0 min.), and at the end of the study (t=24 h). The apparent half-lives (t1/2) of the disappearance of compound were calculated by a one-phase decay equation using a non-linear regression of compound concentration versus time.
The analyses were performed on a Waters ACQUITY UPLC/MS TQD system consisting of a TQD (Triple Quadropole Detector) Mass Spectrometer equipped with an Electrospray Ionization interface and a Photodiode Array Detector. The analyses were run on an ACQUITY UPLC BEH C18 1.7 μm 2.1×50 mm column with a VanGuard BEH C18 1.7 μm pre-column at 40° C. The mobile phase was 0.1% HCOOH in H2O (A) and 0.1% HCOOH in CH3CN (B) using a linear gradient: 0-0.2 min.: 5% B, 0.2-2.2 min.: 5-95% B, 2.2-2.3 min.: 95-5% B, 2.3-3 min.: 5% B with flow rate at 0.5 mL/min. […]

[2] = target: r-NAAA (Rattus norvegicus (Rat), UniProt Q5KTC7); assay: r-NAAA inhibition, rat lung lysosomal NAAA preparation, UPLC/MS; assay type: biochemical; conditions: for inhibition at 3 µM: read-out: r-NAAA % inhib. @ 3 μM
Procedure: Lysosomal NAAA protein preparation were obtained by homogenizing male Sprague-Dawley rat lungs (Charles River) in 20 mM Tris-HCl buffer pH 7.4 containing 0.32M sucrose. Samples were centrifuged at 800×g for 15 minutes at 4° C. Supernatants were then centrifuged at 12,000 g for 30 minutes at 4° C. Pellets were then resuspended in PBS pH 7.4 and subjected to a freeze/thaw cycle at −80° C. The suspension was finally centrifuged at 105,000×g for 1 hour at 4° C. The supernatant was then used in the enzymatic assay.
NAAA protein preparation was pre-incubated with various concentrations of test compounds or vehicle control in 100 mM NaH2PO4/Citrate buffer, 1% Triton-X, 3 mM DTT (pH 4.5) for 30 minutes at 37° C. Samples were then incubated with heptadecenoylethanolamide (50 μM, Avanti Polar Lipids) at 37° C. for 30 min. The reaction was terminated by addition of cold methanol containing heptadecanoic acid (NuCheck Prep) as internal standard. Samples were then analyzed by UPLC/MS (Acquity, Waters). Heptadecenoic and heptadecanoic acids were eluted on an Acquity UPLC BEH C18 column (50 mm length, 2.1 mm i.d., 1.7 μm pore size, Waters) isocratically at 0.5 mL/min for 1.5 min with a solvent mixture of 95% methanol and 5% water, both containing 0.25% Acetic Acid and 5 mM Ammonium Acetate. The column temperature was 40° C. Electrospray ionization was in the negative mode, capillary voltage was 0.5 kV, cone voltage was […], desolvation temperature was 500° C. N2 was used as drying gas at a flow rate of 1000 L/hour and a temperature of 500° C. The [M−H]^− ion was monitored in the selected-ion monitoring mode (m/z values: heptadecenoic acid 267.37, heptadecanoic acid 269.37). Calibration curves were generated using commercial heptadecenoic acid (NuCheck Prep). Inhibition of NAAA activity was calculated as reduction of heptadecenoic acid in the samples compared to vehicle controls. IC50 values were calculated by non-linear regression analysis of log [concentration]/inhibition curves using GraphPad Prism 5 (GraphPad Software Inc., CA—USA) applying a standard slope curve fitting.

[3] = target: T1, h-NAAA (Homo sapiens (Human), UniProt Q02083); assay: Fluorogenic h-NAAA assay; assay type: biochemical
Procedure: (§1) The assay was run in Optiplate 96-wells black plates, in a total reaction volume of 200 mL. NAAA protein preparations (4 ng) were pre-incubated for 10 minutes with various concentrations of test compounds or vehicle control (5% DMSO) in 100 mM citrate/phosphate buffer (pH 4.5) containing 3.0 mM DTT, 0.1% Triton X-100, 0.05% BSA, 150 mM NaCl. N-(4-methyl-2-oxo-chromen-7-yl)-hexadecanamide was used as a substrate (5.0 μM) and the reaction carried over for 30 minutes at 37° C. Fluorescence in the samples was quantified in a Perkin Elmer Envision plate reader using an excitation wavelength of 360 nm and emission 460 nm. IC50 values were calculated by non-linear regression analysis of log [concentration]/inhibition curves using GraphPad Prism 5 (GraphPad Software Inc., CA—USA) applying a standard slope curve fitting.
as §1, with “μL.” for “mL.”, “preparation (4.0 μg) was” for “preparations (4 ng) were”, “min” for “minutes”, “The” for “Fluorescence in the”, “were then read” for “was quantified”

[4] = test system: DNFB-induced scratching; assay: DNFB-induced scratching in mice; assay type: in vivo, mouse; conditions: topical, single dose
Procedure: The methods included the following. Dermatitis was produced in mice using 2-4 dinitrofluorobenzene (DNFB) as described by Buckley and Nijkamp (1994), Am J Respir Grit Care Med 149:400-7. Mice were sensitized on two consecutive days with a 0.5% DNFB solution applied to the shaved abdomen. At day 8, the ears were challenged with a 0.2% DNFB solution. Ear thickness was determined by using a micrometer. Scratching was evaluated as number of episodes per 60 minutes period. Data were analysed by ANOVA followed by the Bonferroni's test. See also Hargreaves K, et al (1988), Pain 32: 77-88 for related information.
The methods include the following. Itching in mice was induced with DNFB as previously described. Additional studies were done with 48/80 model (an inducer of mast cell degranulation). 48/80 was given subcutaneously (30 mg per kg). Data were analysed by ANOVA followed by Bonferroni's test for multiple comparisons.

[5] = test system: 48/80-induced scratching (mast cell degranulation); assay: Compound 48/80-induced scratching in mice; assay type: in vivo, mouse; conditions: topical, single dose, 48/80 30 mg per kg s.c.
Procedure: The methods include the following. Itching in mice was induced with DNFB as previously described. Additional studies were done with 48/80 model (an inducer of mast cell degranulation). 48/80 was given subcutaneously (30 mg per kg).

[6] = target: T1, h-NAAA; assay: UPLC/MS h-NAAA assay; assay type: biochemical
Procedure: NAAA protein preparation (10 μg) was pre-incubated with various concentrations of test compound or vehicle control in 100 mM NaH2PO4, 100 mM Tri Sodium Citrate Dehydrate, 0.1% Triton-X 100, 3 mM DTT, pH 4.5 for 30 min at 37° C. Duplicate samples were then incubated with 50 μM C17:1 10-cis-heptadecenoylethanolamide (Avanti Polar Lipids, Alabaster, Ala.—USA) at 37° C. for 30 minutes. The reaction was terminated by the addition of 0.2 mL of cold methanol containing 1 nmol of heptadecanoic acid (NuChek Prep, Elysian, Minn.—USA) as internal standard. Samples were then analyzed by UPLC/MS. Heptadecenoic and heptadecanoic acids were eluted on an Acquity UPLC BEH C18 column (50 mm length, 2.1 mm i.d., 1.7 μm pore size, Waters) isocratically at 0.5 mL/min for 1.5 min with a solvent mixture of 95% methanol and 5% water, both containing 0.25% Acetic Acid and 5 mM Ammonium Acetate. The column temperature was 40° C. Electrospray ionization was in the negative mode, capillary voltage was 2.7 kV, cone voltage was 45 V, extractor voltage was 3 V. The source temperature was 150° C. with a desolvation temperature of 400° C. N2 was used as drying gas at a cone flow of 100 L/hour and a desolvation flow of […]. The [M−H]-ion was monitored in the selected-ion monitoring mode (m/z values: heptadecenoic acid 267.37, heptadecanoic acid 269.37). Calibration curves were generated using commercial heptadecenoic acid (NuCheck Prep) Inhibition of NAAA activity was calculated as reduction of heptadecenoic acid in the samples compared to vehicle controls. IC50 values were calculated by non-linear regression analysis of log [concentration]/inhibition curves using GraphPad Prism 5 (GraphPad Software Inc., CA—USA) applying a standard slope curve fitting.

T1 sequence (Q02083 29-359): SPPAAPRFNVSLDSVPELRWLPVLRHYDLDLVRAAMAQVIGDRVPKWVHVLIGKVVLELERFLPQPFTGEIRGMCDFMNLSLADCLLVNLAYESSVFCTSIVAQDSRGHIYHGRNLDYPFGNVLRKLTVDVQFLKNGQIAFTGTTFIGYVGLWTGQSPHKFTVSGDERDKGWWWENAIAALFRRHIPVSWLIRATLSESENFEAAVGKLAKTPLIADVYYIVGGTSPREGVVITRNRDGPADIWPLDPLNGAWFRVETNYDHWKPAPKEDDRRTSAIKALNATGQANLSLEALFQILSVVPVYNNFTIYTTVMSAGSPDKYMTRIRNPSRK
r-NAAA, sequence (Q5KTC7 34-362): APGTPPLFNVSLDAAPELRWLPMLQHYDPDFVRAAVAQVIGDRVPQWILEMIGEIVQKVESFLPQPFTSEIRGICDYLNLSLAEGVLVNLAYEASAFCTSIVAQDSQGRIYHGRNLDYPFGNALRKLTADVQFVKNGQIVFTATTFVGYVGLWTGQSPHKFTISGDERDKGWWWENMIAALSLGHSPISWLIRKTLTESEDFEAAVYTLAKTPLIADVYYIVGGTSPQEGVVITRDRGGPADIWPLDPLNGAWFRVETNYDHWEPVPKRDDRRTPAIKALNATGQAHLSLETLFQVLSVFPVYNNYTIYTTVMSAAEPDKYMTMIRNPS

Structure (SMILES)	inhibition at 3 µM [2] [%]	IC50 [3] [µM]	DNFB-induced scratching [4]	48/80-induced scratching [5]	other results
O=C(N[C@H]1COC1=O)OCCCCCc1ccccc1	–	–	–	–	half-life at 10 μM [1]: 23 min
CC[C@H]1OC(=O)[C@@H]1NC(=O)OCCCCCc1ccccc1 (relative stereo) [Example 47, 5-Phenylpentyl-N-[(2R*,3R*)-2-ethyl-4-oxo-oxetan-3-yl]-carbamate]	92	0.004	–	–	–
C[C@@H]1C[C@H]2[C@@H]3CCC4=CC(=O)C=C[C@]4(C)[C@@]3(F)[C@@H](O)C[C@]2(C)[C@@]1(O)C(=O)CO [dexamethasone, reference compound]	–	–	increased scratching	without effect	–
C[C@H]1C[C@H]2[C@@H]3CCC4=CC(=O)C=C[C@]4(C)[C@@]3(F)[C@@H](O)C[C@]2(C)[C@@]1(O)C(=O)CCl [clobetasol, reference compound]	–	–	increased scratching	without effect	–
CC(CN1c2ccccc2Sc2ccccc21)N(C)C (centres unmarked) [promethazine, reference compound]	–	–	without effect	effective	–
C[C@@H]1OC(=O)[C@@H]1NC(=O)OCCCCC1CCCCC1 [Example 19, 4-cyclohexylbutyl-N-[(2S,3R)-2-methyl-4-oxo-oxetan-3-yl]-carbamate]	–	0.008	–	–	IC50 [2]: 0.02 µM; IC50 [6]: 0.009 µM

Continued, in another order:

inhibition at 3 µM [2] [%]	IC50 [3] [µM]	Structure (SMILES)	DNFB-induced scratching [4]	48/80-induced scratching [5]	other results
98	0.012	CC(C)[C@H]1OC(=O)[C@@H]1NC(=O)OC(C)(C)CCCCc1ccccc1 (relative stereo) [Example 55, (1,1-Dimethyl-5-phenyl-pentyl)-N-[(2R*,3R*)-2-isopropyl-4-oxo-oxetan-3-yl]-carbamate]	–	–	–
67	0.278	CC(C)(C)[C@@H]1OC(=O)[C@@H]1NC(=O)OCCCCCc1ccccc1 (relative stereo) [Example 58, 5-Phenylpentyl-N-[(2S*,3R*)-2-tert-butyl-4-oxo-oxetan-3-yl]-carbamate]	–	–	–
75	0.267	CC(C)(C)[C@H]1OC(=O)[C@@H]1NC(=O)OCCCCCc1ccccc1 (relative stereo) [Example 56, 5-Phenylpentyl-N-[(2R*,3R*)-2-tert-butyl-4-oxo-oxetan-3-yl]-carbamate]	–	–	–
89	0.009	CC[C@@H]1OC(=O)[C@@H]1NC(=O)OCCCCCc1ccccc1 (relative stereo) [Example 49, 5-Phenylpentyl-N-[(2S*,3R*)-2-ethyl-4-oxo-oxetan-3-yl]-carbamate]	–	–	–
